Test results published in US8673313B2, “Cell penetrating peptides and its use fused to biomolecules with therapeutic action” (priority 2007, dated 2014).
Ends that are not written are not given here.

What was measured:
[1] = test system: cells with different histological origins (J774, CasKi, HeLa, TC-1, Hep2); test: Internalization of CPP LALF or their analogues to cells with different histological origins (fluorescence microscopy); assay type: cell-based; settings: 25 or 50 μM biotinylated peptide, 37° C., streptavidin-fluorescein, FIG. 1
Experimental: (§1) Different cellular lines were used in this realization (Table 1). Cells grown on sterile glass cover slips of 22 mm overnight at 37° C. and 5% of CO2 with RPMI 1640, 10% inactivated calf fetal serum and 2 mM de glutamine. Then, 25 or 50 μM de CPP LALF or their biotinylated analogues L-2 y L-20 added and incubated at 37° C. and 4° C. in different times (10 min, 20 min, 30 min, 1 h y 2 h). Wash briefly with PBS and fix cells by 4% paraformaldehide per 20 min at room temperature. Wash in three changes of PBS. The permeabilization of the cells was with 0.5% Tritón X-100 for 15 min a room temperature. Wash in three changes of PBS. The cells were incubating for 1 hour in 1% blocking SFB in PBS at room temperature. Wash in three changes of PBS. Incubate with 1:50000 in PBS streptavidin-fluorescein for 45 minutes in a dark chamber. Wash extensively with PBS. Mount cover slip with aqueous mounting medium. Examine using a fluorescence microscope with appropriate filters.
(§2) As a negative control were used not related biotinylated and cells without peptide.

murine splenocytes = test: Internalization of the analogues L-2 and L-20 to murine splenocytes (confocal microscopy); assay type: cell-based, mice C57BL/6; settings: 0.8 mg biotinylated peptide (278-280 μM), 37° C., 10 min to 18 h, FIG. 2
Experimental: For the splenocytes isolation, the mice C57BL/6 were sacrificed by break-up of the cervical and the splenocytes were removed aseptically. The cellular suspensions of the animals by each group met in pool and they were homogenized smoothly. The splenocytes were washed and the erythrocytes were lysed with a solution of NH4C10.83%. After washing, the splenocytes are divided en different tubes with 20×10^6 of cells in 10 mL of fresh medium RPMI 1640 supplemented with 7% de fetal bovine serum. Each preparation was incubated with 0.8 mg of the biotinylated peptides L-2 (278 μM) y L-20 (280 μM) in different times: 10 min, 30 min, 1 h and 18 h. The incubations were at 37° C. and 5% de CO2. The cells on sterile glass cover slips were fixed, permeabilized and treated with propidium Iodide for to stain the nucleus and with streptavidine-fluorescein for detection of peptides inside the cells.

J774 cells [2] = test: Internalization of CPP LALF in J774 cells at 4° C. (fluorescence microscopy); assay type: cell-based; settings: J774, 4° C., 10 min incubation, FIG. 1
Experimental: as §1, §2

J774 cells [3] = test: Fluorescence microscopy: internalization of the cargo protein GFP to the cell; assay type: cell-based; settings: FIG. 6
Text: The protein produced in E. coli from the recombinant fusion LALF-GFP (GFP-English, green fluorescence protein) was used to verify that the CPP LALF or its analogues could internalize the cargo protein. The GFP (GenBank Accession #U55762) was obtained using the polymerase chain reaction from plasmid pEGFP-N1 of Clontech using oligonucleotides with SEQ ID N0. 11 and 12. Both oligonucleotides have restricted sites used for cloning (HindIII-sense and BamHI-antisense).
For the construction of recombinant fragment, synthetic LALF and GFP gene obtained by PCR were inserted with the T4 ligase in the vector pM238, similar as in the example III. The recombinant clone is identified with the SEQ ID N0. 13 and 14.
With the recombinant and purified LALF-GFP protein was performed an similar experiment to the example V, but in this case the cells J774 incubated with LALF-GFP, LALF biotinilade, GFP and PBS.

J774 cells [4] = test: Fluorescence microscopy: internalization of the cargo protein E7 to the cell; assay type: cell-based; settings: 1.66 μM protein, J774, 37° C., 30 min, 1 hour and 2 hours, FIG. 4
Experimental: Cells J774 grown on sterile glass cover slips of 22 mm overnight at 37° C. and 5% of CO2 with RPMI 1640, 10% inactivated calf fetal serum and 2 mM de glutamine. Then, different glass cover slips incubated with 1.66 μM fusion protein LALF-E7, 1.66 μM of protein E7 and PBS (as negative control) a 37° C. per 30 min, 1 hour and 2 hours. CasKi cells (human cells expressing HPV 16) grown as positive control in the same experimental conditions.
After incubation the cells were washed briefly with PBS and fix cells by 4% paraformaldehide per 20 min at room temperature. Wash in three changes of PBS. The permeabilization of the cells was with 0.5% Tritón X-100 for 15 min a room temperature. Wash in three changes of PBS. Then, the cells were incubating for 1 hour in 1% blocking SFB in PBS at room temperature. Wash in three changes of PBS. Cells were incubated with goat IgG anti E7/HPV 16 polyclonal antibody (Santa Cruz) diluted in PBS 1:50. Wash extensively with PBS. Incubate with anti-goat-fluorescein IgG polyclonal antibody (Santa Cruz) diluted in PBS 1:50 for 45 minutes in a dark chamber. Wash extensively with PBS. Mount cover slip with aqueous mounting medium. Examine using a fluorescence microscope with appropriate filters.

J774 cells [5] = test: Western blot: internalization of the cargo protein E7 to the cell; assay type: cell-based; settings: 25 μM protein, J774, 4 hours at 37° C., FIG. 5
Experimental: The cells J774 grown overnight at 37° C. and 5% of CO2 with RPMI 1640, 10% inactivated calf fetal serum and 2 mM de glutamine. After that, the cell were aliquoted in tubes with 5×10^6 cells each and incubated with 25 μM of fusion protein LALF-E7, 25 μM of protein E7 and PBS during 4 hours at 37° C. The sedimentation of the cells was made by a centrifugation to 1000 rpm by 10 minutes. Wash pellet in three changes of PBS. Cells were ruptured in 100 μL of RIPA buffer (Promega) mixed in vortex per 10 second and 2 min in ice. The sedimentation of the broken cells was made by a centrifugation to 12000 rpm by 15 minutes. Protein concentration was determined to the cell extract and rum 10 μg of total protein in 15% polyacrilamide gel. Subsequently the gel was transferred to a nitrocellulose membrane. The membrane was incubated for 2 hours at room temperature with an IgG goat polyclonal antibody anti-E7 HPV 16 (Santa Cruz) diluted in PBS (1:100). Wash in three changes of PBS. Subsequently, the membrane was incubated for 45 minutes at room temperature and in a dark room with an anti-goat IgG peroxidase conjugate (Sigma) diluted in PBS (1:5000). Wash in three changes of PBS. Finally the ECL system from Amersham Pharmacia Biotech was used.

**Q.** How did the internalization into cells [1] turn out when “L-12: analogous peptide of LALF 32-51 with alanine substitution in the position 12 (SEQ ID N0. 4) (HYRIKPTFRRLAWKYKGKFW; Artificial Sequence Description Analogue L-12)” was run?
**A.** similar

**Q.** What about the internalization into splenocytes (murine splenocytes) of the same substance?
**A.** similar

**Q.** With “LALF: peptide corresponding to the region 32-51 of LALF protein (SEQ ID N0. 1) (HYRIKPTFRRLKWKYKGKFW; Artificial Sequence Description Synthetic Gen CPP LALF)” as the substance, how does the internalization into cells [1] read?
**A.** internalized in different cell types and short incubation times (30 min)

**Q.** And the internalization into cells (J774 cells [2])?
**A.** internalized in the cells J774 with only 10 min of the incubation at 4 °C

**Q.** What about the internalization into splenocytes (murine splenocytes) of the same substance?
**A.** similar

**Q.** “L-20: analogous peptide of LALF 32-51 with alanine substitution in the position 20 (SEQ ID N0. 5) (HYRIKPTFRRLKWKYKGKFA; Artificial Sequence Description Analogue L-20)” was tested. Which internalization into splenocytes (murine splenocytes) did it give?
**A.** internalized in a short times of incubation (30 min)

**Q.** With “LALF-biotinilado: biotinylated CPP LALF peptide used as comparator in the GFP experiment (HYRIKPTFRRLKWKYKGKFW; also: biotinylated, site not given here; UniProt P07086 32-51, looked up, fragment)” as the substance, how does the “internalization of GFP (fluorescent cells)” value (J774 cells [3]) read?
**A.** fluorescent cells

**Q.** Which results are given for “E7: recombinant protein E7 of HPV 16, unfused comparator [reference compound]”?
**A.** internalization of E7 (fluorescent cells, anti-E7 antibody) (J774 cells [4]): Negative results; detection of protein in cell extract by anti-E7 antibody (Western blot) (J774 cells [5]): not detected any recognition
